Measured values as given in PubChem BioAssay AID2060605 (Molecular Pharmacology Branch, DTP, NCI, 2025).
pIC50: −log10 of the molar value. Where “and” joins values, the source holds several entries; their conditions need not be identical. Equal entries are not always repeated. Blank lines part the entries; values can stand above or below the molecule they belong to.

System: 947758-054-R-J2-PDC spheroid growth, percent test/control
Test: Anticancer human tumor 947758-054-R-J2-PDC patient-derived colon adenocarcinoma cell line growth inhibition [CLK]
Settings: spheroids with HUVEC and MSC; for viability, T/C: stronger effect = lower value
Outline: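 Multi-cell-type spheroids combined patient-derived tumor cells with HUVEC endothelial cells and human mesenchymal stem cells. Paired agents were dosed in half-log steps down from about clinical Cmax, or from 10 microM where Cmax was unknown.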

[1] = curve of first compound, second compound 0.0316 µM
[2] = curve of first compound, second compound 0.1 µM
[3] = curve of first compound, second compound 0.316 µM
[4] = curve of first compound, second compound 1 µM
[5] = curve of first compound, second compound 3.16 µM
[6] = curve of first compound, second compound 10 µM
[7] = second compound 0.0316 µM, first compound 0.0316 µM
[8] = second compound 0.0316 µM, first compound 0.1 µM
[9] = second compound 0.0316 µM, first compound 0.316 µM
[10] = second compound 0.0316 µM, first compound 1 µM
[11] = second compound 0.0316 µM, first compound 3.16 µM
[12] = second compound 0.0316 µM, first compound 10 µM
[13] = second compound 0.1 µM, first compound 0.0316 µM
[14] = second compound 0.1 µM, first compound 0.1 µM
[15] = second compound 0.1 µM, first compound 0.316 µM
[16] = second compound 0.1 µM, first compound 1 µM
[17] = second compound 0.1 µM, first compound 3.16 µM
[18] = second compound 0.1 µM, first compound 10 µM
[19] = second compound 0.316 µM, first compound 0.0316 µM
[20] = second compound 0.316 µM, first compound 0.1 µM
[21] = second compound 0.316 µM, first compound 0.316 µM
[22] = second compound 0.316 µM, first compound 1 µM
[23] = second compound 0.316 µM, first compound 3.16 µM
[24] = second compound 0.316 µM, first compound 10 µM
[25] = second compound 1 µM, first compound 0.0316 µM
[26] = second compound 1 µM, first compound 0.1 µM
[27] = second compound 1 µM, first compound 0.316 µM
[28] = second compound 1 µM, first compound 1 µM
[29] = second compound 1 µM, first compound 3.16 µM
[30] = second compound 1 µM, first compound 10 µM
[31] = second compound 3.16 µM, first compound 0.0316 µM
[32] = second compound 3.16 µM, first compound 0.1 µM
[33] = second compound 3.16 µM, first compound 0.316 µM
[34] = second compound 3.16 µM, first compound 1 µM
[35] = second compound 3.16 µM, first compound 3.16 µM
[36] = second compound 3.16 µM, first compound 10 µM
[37] = second compound 10 µM, first compound 0.0316 µM
[38] = second compound 10 µM, first compound 0.1 µM
[39] = second compound 10 µM, first compound 0.316 µM
[40] = second compound 10 µM, first compound 1 µM
[41] = second compound 10 µM, first compound 3.16 µM
[42] = second compound 10 µM, first compound 10 µM
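Note: spheroids exposed to compounds for one week before readout.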
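Throughout, for viability, T/C: 100% = DMSO vehicle control wells.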

Compound: CC(Nc1ccc2c(c1)OCCn1cc(N3C(=O)OCC3C(F)F)nc1-2)C(N)=O (centres undefined) + CN1CCN(c2cc(C(=O)Nc3cc4cc(-c5cnn(C)c5)ccc4cn3)ccn2)CC1
pIC50 [1]: < 5.00 | pIC50 [2]: 6.53 | pIC50 [3]: > 7.50 | pIC50 [4]: > 7.50 | pIC50 [5]: > 7.50 | pIC50 [6]: > 7.50 | viability, T/C [7]: 138% | viability, T/C [8]: 153% | viability, T/C [9]: 137% | viability, T/C [10]: 88.2% | viability, T/C [11]: 94.5% | viability, T/C [12]: 74.2% | viability, T/C [13]: 165% | viability, T/C [14]: 127% | viability, T/C [15]: 45.4% | viability, T/C [16]: 39.6% | viability, T/C [17]: 44.5% | viability, T/C [18]: 29.6% | viability, T/C [19]: 5.46% | viability, T/C [20]: 4.48% | viability, T/C [21]: 4.7% | viability, T/C [22]: 3.14% | viability, T/C [23]: 3.86% | viability, T/C [24]: 1.64% | viability, T/C [25]: 0.13% | viability, T/C [26]: 0.18% | viability, T/C [27]: 0.13% | viability, T/C [28]: 0.11% | viability, T/C [29]: 0.11% | viability, T/C [30]: 0.2% | viability, T/C [31]: 0.24% | viability, T/C [32]: 0.19% | viability, T/C [33]: 0.25% | viability, T/C [34]: 0.22% | viability, T/C [35]: 0.31% | viability, T/C [36]: 0.26% | viability, T/C [37]: 0.35% | viability, T/C [38]: 0.5% | viability, T/C [39]: 0.84% | viability, T/C [40]: 0.31% | viability, T/C [41]: 1.57% | viability, T/C [42]: 0.63%

Compound: COc1ccc([C@@H](O)c2cc(-c3ncnc4cc(N5CCOCC5)ccc34)c(F)cc2Cl)nn1
viability, T/C (compound 0.0316 µM): 72.8% and 98.3% | viability, T/C (compound 0.1 µM): 69.7% and 91.4% | viability, T/C (compound 0.316 µM): 86.8% and 105% | viability, T/C (compound 1 µM): 108% and 82.2% | viability, T/C (compound 3.16 µM): 97.9% and 117% | viability, T/C (compound 10 µM): 65.9% and 83.9% | pIC50 (curve of compound): < 5.00

Compound: O=c1[nH]cc(F)c(=O)[nH]1 + CN1CCN(c2cc(C(=O)Nc3cc4cc(-c5cnn(C)c5)ccc4cn3)ccn2)CC1
pIC50 [1]: 5.08 | pIC50 [2]: 5.21 | pIC50 [3]: > 7.50 | pIC50 [4]: > 7.50 | pIC50 [5]: > 7.50 | pIC50 [6]: > 7.50 | viability, T/C [7]: 124% | viability, T/C [8]: 113% | viability, T/C [9]: 103% | viability, T/C [10]: 143% | viability, T/C [11]: 83.8% | viability, T/C [12]: 43.2% | viability, T/C [13]: 150% | viability, T/C [14]: 167% | viability, T/C [15]: 159% | viability, T/C [16]: 166% | viability, T/C [17]: 69.1% | viability, T/C [18]: 36% | viability, T/C [19]: 4.49% | viability, T/C [20]: 7.16% | viability, T/C [21]: 4.59% | viability, T/C [22]: 5.49% | viability, T/C [23]: 4.38% | viability, T/C [24]: 3.92% | viability, T/C [25]: 0.14% | viability, T/C [26]: 0.31% | viability, T/C [27]: 1.1% | viability, T/C [28]: 0.1% | viability, T/C [29]: 2.13% | viability, T/C [30]: 0.12% | viability, T/C [31]: 0.24% | viability, T/C [32]: 1.5% | viability, T/C [33]: 0.14% | viability, T/C [34]: 0.16% | viability, T/C [35]: 0.18% | viability, T/C [36]: 2.35% | viability, T/C [37]: 0.67% | viability, T/C [38]: 0.21% | viability, T/C [39]: 0.25% | viability, T/C [40]: 0.21% | viability, T/C [41]: 1.51% | viability, T/C [42]: 0.31%

Compound: CC(C)CC(NC(=O)C(Cc1ccccc1)NC(=O)c1cnccn1)B(O)O (centres undefined)
viability, T/C (compound 0.000949 µM): 89.3% and 86% | viability, T/C (compound 0.003 µM): 2.43% and 0.8% | viability, T/C (compound 0.00949 µM): 0.17% and 0.23% | viability, T/C (compound 0.03 µM): 0.24% and 0.3% | viability, T/C (compound 0.0949 µM): 0.19% and 0.27% | viability, T/C (compound 0.3 µM): 0.24% and 0.28% | pIC50 (curve of compound): 8.80 and 8.81

Second part, led by results:

pIC50 [1]: 5.52 | pIC50 [2]: 5.65 | pIC50 [3]: 5.74 | pIC50 [4]: 6.51 | pIC50 [5]: 6.71 | pIC50 [6]: > 7.50
Compound: CC1COCCN1c1cc(C2(S(C)(=N)=O)CC2)nc(-c2ccnc3[nH]ccc23)n1 (centres undefined) + CNC(=O)c1ccc(Nc2nc(OC3CCCC3)c3c(-c4ccc5nc(C)oc5c4)c[nH]c3n2)c(OC)c1
viability, T/C [7]: 95.8% | viability, T/C [8]: 103% | viability, T/C [9]: 114% | viability, T/C [10]: 87% | viability, T/C [11]: 49.7% | viability, T/C [12]: 22.2% | viability, T/C [13]: 110% | viability, T/C [14]: 105% | viability, T/C [15]: 91.6% | viability, T/C [16]: 88.8% | viability, T/C [17]: 32.8% | viability, T/C [18]: 18.8% | viability, T/C [19]: 90.5% | viability, T/C [20]: 93% | viability, T/C [21]: 71.8% | viability, T/C [22]: 68% | viability, T/C [23]: 36% | viability, T/C [24]: 13.2% | viability, T/C [25]: 72.4% | viability, T/C [26]: 53.3% | viability, T/C [27]: 48.5% | viability, T/C [28]: 45.8% | viability, T/C [29]: 22% | viability, T/C [30]: 8.76% | viability, T/C [31]: 66.8% | viability, T/C [32]: 43.6% | viability, T/C [33]: 47.2% | viability, T/C [34]: 45.7% | viability, T/C [35]: 19.3% | viability, T/C [36]: 8.82% | viability, T/C [37]: 50.7% | viability, T/C [38]: 44.7% | viability, T/C [39]: 40.5% | viability, T/C [40]: 26.7% | viability, T/C [41]: 15.1% | viability, T/C [42]: 9.5%

pIC50 (curve of compound): < 5.00
Compound: C=CC(=O)N1CCN(c2nc(=O)n(-c3c(C)ccnc3C(C)C)c3nc(-c4c(O)cccc4F)c(F)cc23)C(C)C1 (centres undefined)
viability, T/C (compound 0.0316 µM): 115% and 77.6% | viability, T/C (compound 0.1 µM): 77.8% and 82.6% | viability, T/C (compound 0.316 µM): 106% and 101% | viability, T/C (compound 1 µM): 75.6% and 75% | viability, T/C (compound 3.16 µM): 81.2% and 90.3% | viability, T/C (compound 10 µM): 94.7% and 77.3%

pIC50 [1]: 7.12 | pIC50 [2]: 7.02 | pIC50 [3]: 7.23 | pIC50 [4]: > 7.50 | pIC50 [5]: > 7.50 | pIC50 [6]: > 7.50
Compound: CC(Nc1ccc2c(c1)OCCn1cc(N3C(=O)OCC3C(F)F)nc1-2)C(N)=O (centres undefined) + CNC(=O)c1ccc(Nc2nc(OC3CCCC3)c3c(-c4ccc5nc(C)oc5c4)c[nH]c3n2)c(OC)c1
viability, T/C [7]: 55.6% | viability, T/C [8]: 51.5% | viability, T/C [9]: 39.4% | viability, T/C [10]: 35.8% | viability, T/C [11]: 39% | viability, T/C [12]: 33.7% | viability, T/C [13]: 70.7% | viability, T/C [14]: 46.2% | viability, T/C [15]: 36.2% | viability, T/C [16]: 35% | viability, T/C [17]: 28% | viability, T/C [18]: 20.8% | viability, T/C [19]: 64.6% | viability, T/C [20]: 37.9% | viability, T/C [21]: 16.9% | viability, T/C [22]: 22.7% | viability, T/C [23]: 21.6% | viability, T/C [24]: 14.4% | viability, T/C [25]: 34.1% | viability, T/C [26]: 19.7% | viability, T/C [27]: 12.5% | viability, T/C [28]: 10.8% | viability, T/C [29]: 10.8% | viability, T/C [30]: 4.05% | viability, T/C [31]: 31.8% | viability, T/C [32]: 14.3% | viability, T/C [33]: 9.12% | viability, T/C [34]: 8.23% | viability, T/C [35]: 5.63% | viability, T/C [36]: 4.88% | viability, T/C [37]: 20.7% | viability, T/C [38]: 10.9% | viability, T/C [39]: 10.3% | viability, T/C [40]: 6.53% | viability, T/C [41]: 4.37% | viability, T/C [42]: 4.21%
